The values that follow come from patent publication US20110076331A1, “Use of Deuterium Oxide as an Elastase Inhibitor” (priority 2008, published 2011).

One assay relates to Syrian Gold hamsters. The experiment in a line: D2O instillation in an animal model of COPD (HNE-induced hemorrhage). The format is in vivo, hamster. The method, then: To investigate the effect of D2O in a model for chronic obstructive pulmonary disease (COPD) male Syrian Gold hamsters (average weight 118 g±4 g) were divided into two groups (experimental group and control group) of 10 hamsters each. The animals of both groups were initially anesthetized intraperitoneally (ketamine 95 mg/kg and xylazine 17 mg/kg) and then intubated endotracheally with direct laryngoscopy. The experimental group received 250 μL of 0.9% NaCl solution based on D2O (98.5% deuterium enrichment) instilled, whereas 250 μL of a corresponding isotonic NaCl solution based on H2O was used in the control group. Each animal received after the end of this instillation a second instillation at a time interval of 30 minutes, which was identical for both groups: 100 μL of human neutrophil elastase (HNE, 500 μg/mL in sterile 0.9% NaCl solution). The animals were killed 4 hours (six animals per group) or 24 hours (four animals per group) after the last instillation (phenobarbital 70 mg/kg intraperitoneally).
For the animals killed 4 hours after instillation a BAL (bronchoalveolar lavage) was performed. 2.5 mL 0.9% NaCl solution was repeatedly instilled (total 3 times) for BAL and the hemoglobin concentration in the instillate then determined spectrophotometrically. The obtained value was used as a gauge for lung damage (hemorrhage) by human neutrophil elastase (HNE). For the control group an average hemoglobin value of 320±50 mOD (milli-optical density) was obtained. For the experimental group an average hemoglobin value of 170±20 mOD was measured.
For the animals killed 24 hours after instillation the lungs were removed, fixed in formalin and embedded in paraffin. Histologic longitudinal sections of the lungs in the direction of the lung hilus were prepared, stained and made visible with iron by means of an histochemical reaction (Berlin blue reaction), which serves as a gauge for the intensity of HNE-induced hemorrhage. The microscopic investigation of the sections gave the following result: […]

The test system of the next assay is Long-Evans rats. Nature of the assay: Cerebral ischemia/reperfusion animal model. The conditions noted are these: D2O in isotonic saline infused 15 minutes before ischemia and right before reperfusion; vs H2O. It counts as in vivo, rat. The method, then:
The effect of D2O on cerebral ischemia was investigated in an animal model. For this purpose cerebral ischemia was produced for 1 hour in adult Long-Evans rats by closure of both carotid arteries, which followed reperfusion over 24 hours. Final observation with evaluation of neurovegetative symptoms occurred (spontaneous activity, coordinated walking, stretching of the front paw and climbing). Damage to the brain tissue was then investigated histologically. In two experimental groups of three rats each, either D2O (experimental group) or H2O (control group) in isotonic saline was infused in the animals 15 minutes before initiation of ischemia and right before subsequent reperfusion.

Assay [1] has as its system elastase activity in the blister fluid. The experiment in a line: Ex vivo bullous pemphigoid blister fluid: degradation of recombinant BP180 antigen. The format is biochemical, human. The conditions noted are these: added to blister fluid; autoradiography after gel electrophoresis; vs untreated control. The method, then:
The blister fluid in patients with bullous pemphigoid was sampled in an ex vivo model (Verraes et al., 2001). Recombinant radioactively-labeled BP180 antigen, the target antigen in this disease, was then added to the blister fluid and decay determined autoradiographically after gel electrophoresis. For inhibition of elastase activity in the blister fluid either D2O or the elastase inhibitor chloromethyl ketone was added to it. An untreated control served as comparison. Both with chloromethyl ketone and with D2O the degradation of the recombinant BP180 antigen could be inhibited, whereas the protein was almost completely degraded by the untreated blister fluid.

A further assay has as its system Wistar rats. The experiment in a line: Animal model of infectious peritonitis (S. aureus ATCC 25923), peritoneal lavage. To be noted: peritoneal lavage 4 hours after S. aureus, vs isotonic saline. The format is in vivo, rat. The method, then: Male Wistar rats received a catheter for peritoneal dialysis and for induction of peritonitis and for further peritoneal dialysis. A purulent peritonitis was produced by introduction of a suspension of S. aureus ATCC 25923 (1×10^9 c.f.u. in 0.5 mL). After 4 hours peritoneal lavage was carried out either with isotonic saline or with isotonic […]. After the death of the animals, but at the latest after 24 hours, bacterial infestation and the inflammatory reaction in the peritoneum were investigated histologically.

The subject of a further assay is brown Norwegian rats. Nature of the assay: Animal model of allergic bronchial asthma (ovalbumin). It counts as in vivo, rat. To be noted: aerosol of isotonic D2O solution for 6 days before ovalbumin aerosol; after 24 hours. The method, then:
The effect of D2O in allergic asthma was presented in an animal model of 10-week-old brown Norwegian rats (Roumestan et al., Resp Res 8:35-46, 2007). Sensitization of the animals occurred by repeated intraperitoneal injection of ovalbumin. The animals were then introduced to a climatized cage and constantly treated with an aerosol of isotonic H2O or D2O solution for 6 days. Asthma triggering by an ovalbumin-containing aerosol then occurred. The change in airway resistance was then determined as parameter by barometric plethysmography on the living animals after 24 hours. A significant intensification of airway resistance was found in the H2O-treated group.

As for `[2H]O[2H]` [D2O, deuterium oxide], the “average hemoglobin value in BAL” value in the assay on Syrian Gold hamsters (250 μL 0.9% NaCl solution based on D2O instilled 30 minutes before HNE, animals killed 4 hours after instillation) was 170±20 mOD. For the same compound, the “blue-stained cells in lung sections (Berlin blue reaction), intensity of HNE-induced hemorrhage” value in the assay on Syrian Gold hamsters (animals killed 24 hours after instillation, vs H2O control group) is “significantly smaller number of blue-stained cells”. Moreover, in the assay with Syrian Gold hamsters (instillation, from reduction in hemoglobin concentration in BAL vs H2O control group, 4 hours), the “inhibition of the acute lung damage caused by elastase (hemorrhage)” value was 47%. Further, the “reperfusion damage (granulocytes in histological sections, neurological behavior)” value in the assay on Long-Evans rats is recorded as “significant effect on the reduction in reperfusion damage”. In assay [1], the “degradation of the recombinant BP180 antigen” value was “inhibited”. In the assay on Wistar rats (histology), the “inflammatory activity in the peritoneum” value is given as “lower inflammatory activity”. In the assay on Wistar rats, the “number of bacteria in the quantitative culture” value is listed as “reduced number of bacteria”. In addition, the “change in airway resistance (barometric plethysmography)” value in the assay on brown Norwegian rats was “only a slight increase in airway resistance”.
